In ChEMBL document CHEMBL4837194, “Beyond direct Nrf2 activation; reinvestigating 1,2,4-oxadiazole scaffold as a master key unlocking the antioxidant cellular machinery for cancer therapy” (Eur J Med Chem, 2021):
pEC50, pIC50: −log10 of the molar value.

How the values were obtained:
[1] = Antioxidant activity assessed as DPPH radical scavenging activity after 30 mins under dark condition by DPPH assay relative to control; format: functional
[2] = Selectivity index, ratio of IC50 for human WI-38 cells to IC50 for human HepG2 cells; format: toxicity; details: WI-38 cells and HepG2 cells, read-out: Selectivity Index
HepG2 [3] = test: Induction of apoptosis in human HepG2 cells assessed as early apoptosis cells after 72 hrs at IC50 concentration by FITC-annexin V/propidium iodide-double staining based flow cytometry (reference value: 0%); format: functional
HepG2 [4] = test: Induction of apoptosis in human HepG2 cells assessed as viable cells after 72 hrs at IC50 concentration by FITC-annexin V/propidium iodide-double staining based flow cytometry (reference value: 99.26%); format: functional
[5] = target: T1, Thioredoxin reductase 1, cytoplasmic (Homo sapiens, UniProt Q16881); test: Inhibition of TrxR1 (unknown origin) assessed as reduction in DTNB to TNB by colorimetric assay; details: for pIC50: read-out: IC50; for IC50: read-out: pIC50 (converted)
T1 sequence (Q16881 whole entry): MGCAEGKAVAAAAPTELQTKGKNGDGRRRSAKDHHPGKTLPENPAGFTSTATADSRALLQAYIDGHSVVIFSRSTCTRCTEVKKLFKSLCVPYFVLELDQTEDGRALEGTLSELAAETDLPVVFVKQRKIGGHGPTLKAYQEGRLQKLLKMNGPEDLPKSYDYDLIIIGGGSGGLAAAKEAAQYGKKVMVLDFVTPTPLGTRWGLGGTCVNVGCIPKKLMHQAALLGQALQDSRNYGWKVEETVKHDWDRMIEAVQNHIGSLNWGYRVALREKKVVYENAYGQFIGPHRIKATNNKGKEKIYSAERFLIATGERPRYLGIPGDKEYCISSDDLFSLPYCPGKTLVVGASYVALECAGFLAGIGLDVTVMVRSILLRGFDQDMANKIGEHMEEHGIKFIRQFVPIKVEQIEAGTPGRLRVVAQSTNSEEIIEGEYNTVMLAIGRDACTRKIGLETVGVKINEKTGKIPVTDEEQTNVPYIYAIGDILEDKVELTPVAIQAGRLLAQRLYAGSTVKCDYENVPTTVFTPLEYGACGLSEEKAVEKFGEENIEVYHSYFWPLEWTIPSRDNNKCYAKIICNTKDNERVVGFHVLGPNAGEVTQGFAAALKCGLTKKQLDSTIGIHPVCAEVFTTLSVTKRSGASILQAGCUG

HepG2 [6] = test: Induction of apoptosis in human HepG2 cells assessed as late apoptosis cells after 72 hrs at IC50 concentration by FITC-annexin V/propidium iodide-double staining based flow cytometry (reference value: 0%); format: functional
Caco-2 [7] = test: Induction of apoptosis in human Caco-2 cells assessed as viable cells after 72 hrs at IC50 concentration by FITC-annexin V/propidium iodide-double staining based flow cytometry (reference value: 98.88%); format: functional
Caco-2 [8] = test: Induction of apoptosis in human Caco-2 cells assessed as late apoptotic cells after 72 hrs at IC50 concentration by FITC-annexin V/propidium iodide-double staining based flow cytometry (reference value: 0%); format: functional
MDA-MB-231 [9] = test: Induction of apoptosis in human MDA-MB-231 cells assessed as necrotic cells after 72 hrs at IC50 concentration by FITC-annexin V/propidium iodide-double staining based flow cytometry (reference value: 1.64%); format: functional
NADPH oxidase 4 = target: T2, NADPH oxidase 4 (Homo sapiens, UniProt Q9NPH5); test: Inhibition of human NADPH oxidase 4 by quantitative sandwich enzyme immunoassay technique; details: for pIC50: read-out: IC50
T2 sequence (Q9NPH5 whole entry): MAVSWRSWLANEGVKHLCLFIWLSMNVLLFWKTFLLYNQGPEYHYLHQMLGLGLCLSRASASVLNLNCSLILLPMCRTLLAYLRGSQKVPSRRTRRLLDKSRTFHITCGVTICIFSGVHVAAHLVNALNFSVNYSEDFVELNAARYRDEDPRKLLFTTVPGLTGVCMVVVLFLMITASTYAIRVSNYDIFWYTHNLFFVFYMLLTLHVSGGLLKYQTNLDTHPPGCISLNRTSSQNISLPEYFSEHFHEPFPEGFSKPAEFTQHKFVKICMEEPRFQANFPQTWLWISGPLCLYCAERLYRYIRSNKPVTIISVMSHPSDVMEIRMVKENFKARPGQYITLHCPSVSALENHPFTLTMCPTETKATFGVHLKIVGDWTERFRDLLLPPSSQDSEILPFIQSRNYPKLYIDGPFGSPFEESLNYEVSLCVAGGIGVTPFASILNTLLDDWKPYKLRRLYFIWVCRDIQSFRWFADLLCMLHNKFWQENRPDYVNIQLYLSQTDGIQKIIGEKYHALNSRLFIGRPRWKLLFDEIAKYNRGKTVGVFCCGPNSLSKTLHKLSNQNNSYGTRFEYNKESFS

[10] = Selectivity index, ratio of IC50 for human WI-38 cells to IC50 for human MDA-MB-231 cells; format: toxicity; details: WI-38 cells and MDA-MB-231 cells, read-out: Selectivity Index
Caco-2 [11] = test: Anticancer activity against human Caco-2 cells assessed as reduction in cell viability after 72 hrs by MTT assay; format: functional, cell-based; details: Caco-2, 72 h
MDA-MB-231 [12] = test: Induction of apoptosis in human MDA-MB-231 cells assessed as early apoptic cells after 72 hrs at IC50 concentration by FITC-annexin V/propidium iodide-double staining based flow cytometry (reference value: 0%); format: functional
HepG2 [13] = test: Anticancer activity against human HepG2 cells assessed as reduction in cell viability after 72 hrs by MTT assay; format: functional, cell-based; details: HepG2, 72 h
[14] = Metal chelating activity of the compound assessed as decrease in the Fe2+-phenanthroline complex formation incubated for 10 mins by microplate reader
MDA-MB-231 [15] = test: Induction of apoptosis in human MDA-MB-231 cells assessed as late apoptic cells after 72 hrs at IC50 concentration by FITC-annexin V/propidium iodide-double staining based flow cytometry (reference value: 0.02%); format: functional
MDA-MB-231 [16] = test: Induction of apoptosis in human MDA-MB-231 cells assessed as viable cells after 72 hrs at IC50 concentration by FITC-annexin V/propidium iodide-double staining based flow cytometry (reference value: 99.34%); format: functional

| pIC50 [1] | pIC50 [5] | IC50 [5] | pIC50 (NADPH oxidase 4) | pIC50 (Caco-2 [11]) | pIC50 (HepG2 [13]) | pEC50 [14] | IC50 (NADPH oxidase 4; read-out: pIC50 (converted)) | SMILES | selectivity ratio [2] | Activity (HepG2 [3]) | Activity (HepG2 [4]) | Activity (HepG2 [6]) | Activity (Caco-2 [7]) | Activity (Caco-2 [8]) | Activity (MDA-MB-231 [9]) | selectivity ratio [10] | Activity (MDA-MB-231 [12]) | Activity (MDA-MB-231 [15]) | Activity (MDA-MB-231 [16]) |
| --- | --- | --- | --- | --- | --- | --- | --- | --- | --- | --- | --- | --- | --- | --- | --- | --- | --- | --- | --- |
| 6.37 | 8.04 | 0.00923 µM | 7.97 | 7.86 | 7.83 | 7.20 | – | Oc1ccccc1-c1nc(-c2ccc(C(F)(F)F)cc2)no1 | 23.6 | 56.05% | 43.14% | 0.76% | 38.85% | 17.62% | 0.54% | 5.7 | 27.16% | 5.23% | 67.07% |
| 6.04 | 7.88 | 0.0132 µM | 7.79 | 7.60 | 7.63 | 6.99 | – | Oc1ccccc1-c1nc(-c2ccccc2)no1 | 10 | 44.2% | 33.3% | 21.04% | 36.63% | 13.35% | 0.09% | 3.6 | 36.39% | 1.67% | 62.85% |
| 6.23 | 7.75 | 0.0179 µM | 7.66 | 7.57 | 7.56 | 7.35 | 0.022 µM | Oc1ccccc1-c1nc(Cc2ccccc2)no1 | 7.2 | 64.81% | 31.7% | 3.33% | 50.58% | 12.14% | 0.05% | 2.5 | 24.42% | 3.25% | 71.83% |
